# Results taken from patent EP1311486B1, “USES OF THALIPORPHINE OR ITS DERIVATIVES IN TREATMENT OF CARDIAC DISEASES AND PREPARATION OF SAME” (Lotus Pharmaceutical Co., Ltd., priority 2000, dated 2002).
# “And” between values parts separate entries of the source, which are not always exact repeats. Equal values may be shown once.
# Key:
# [1] = test system: rats subjected to 4 hours coronary ligation; assay: Area at risk and infarct size after 4 hours coronary ligation (triphenyl tetrazolium chloride-Evan's blue staining); assay type: in vivo, rat
# Protocol: Infarct size was determined by the triphenyl tetrazolium chloride-Evan's blue staining technique. The rat was sacrificed after its left descending coronary artery had been occluded for 4 hours. The weight of infarct tissue was expressed as a percentage of total ventricular weight or occluded zone. The difference in infarct size was statistically analyzed using unpaired Student's t-test. Table 4 Area at risk and infarct size in vehicle and THP-treated rats subjected to 4 hours coronary ligation
# The difference in ischemic area and infarct size shown by staining technique after 4 hours of ischemia is evaluated. […] In the vehicle group, the necrotic area expresses either as a percentage of the area at risk (45.2±1.0%) or as a percentage of the total ventricle (19.8±2.2%), indicating the amount of cardiac tissue at risk becomes necrotic. Administration of THP reduces myocardial necrosis extension in a dose dependent manner. This reduction is observed either in the necrotic area/area at risk (38.1±5.0%, 29.0±2.5% and 10.7±1.8%/with 3.5x10^-7, 10^-6, 10^-5 g/kg of THP, respectively) or in the necrotic area/total ventricle (17.9+2.3%, 13.4±1.2% and 5.0±0.9% with 3.5x10^-7, 10^-6, 10^-5 g/kg of THP, respectively).
# [2] = test system: AV node conduction; assay: His bundle electrogram of isolated heart, Langendorff perfusion, atrial pacing at 300 ms cycle length; design: species or system rats and guinea pigs; conditions: for atrial effective refractory period (AERP): before drug THP 60 ms, quinidine 40 ms; for ventricular effective refractory period (VERP): before drug THP 160 ms, quinidine 180 ms; for AV node effective refractory period (AVNERP): before drug THP 170 ms, quinidine 130 ms; for wenckbach cycle length (WCL): before drug THP 200 ms, quinidine 150 ms
# Protocol: The investigation conforms to the Guide for the Care and Use of Laboratory Animals published by the US National Institutes of Health (NIH publication No. 85-23, revised 1996). Adult rats and guinea pigs were killed after hepariniation and anesthetization with urethane (1.25 g/kg i.p.). After isolating the heart, the aorta was perfused with 10µM quinidine and THP, respectively, by Langendorff perfusion. A pair of bipolar electrodes connected with silver wire were placed on the tip of the Triangle of Koch to record the His bundle electrogram. In addition, another pair of bipolar electrodes connected with silver wire were placed on the surface of the right ventricle to record T wave. […] The QT interval, conduction time through the sinoatrial (SA interval), the atrioventricular node (AH interval) and His-purkinje system (HV interval) were recorded, respectively, using electrocardiograph. Similarly, the recovery curve of His-purkinje system (i.e. the relationship of H2V2 and V1H2), atrial and ventricular refractory period and AV node refractory period were also recorded in the same manner. 1 and 2.
# The SA, AH, HV intervals and T wave are prolonged in the quinidine-treated heart (FIG. 1). […] In addition, 3, 10 and 30µM THP can prolong the atrial effective refractory period (AERP) from 60 ms to 90, 100 and 120 ms, respectively; the ventricular effective refractory period (VERP) from 160 ms to 160, 170 and 190 ms, respectively; and the AV node effective refractory period (AVNERP) from 170 ms to 170, 200 and 240 ms, respectively. When compared with THP in the same manner, 3,10 and 30µM quinidine can prolong the AERP from 40 ms to 60, 80 and 130 ms; the VERP from 180 ms to 170, 180 and 190 ms; and the AVNERP from 130 ms to 150, 200 and 245 ms, respectively. Further, 3, 10 and 30µM THP can change the wenckbach cycle length (WCL) from 200 ms to 210, 230 and 280 ms, respectively; whereas 3, 10 and 30µM quinidine can change the WCL from 150 ms to 170, 210 and 300 ms, respectively. Both THP and quinidine prolong AERP, VERP and AVNERP, however, only quinidine inhibits conduction in AV node (prolonged AH interval). In contrast, even when the THP concentration raised to 10µM, the conduction in AV node is not inhibited.
# [3] = test system: rats subjected to myocardial ischemia; assay: Blood pressure and heart rate in rats subjected to 30 minutes coronary ligation; assay type: in vivo; conditions: intravenous, 3.5x10^-6 or 3.5x10^-5 g/kg
# Protocol: Myocardial ischemia was performed by a temporary tightening of the silk ligature around the left main coronary artery. Reperfusion was achieved by releasing the tension applied to the ligature (operated groups). Sham operated animals underwent all surgical procedures, apart from the fact that the silk, passing around the left coronary artery, was not tied (sham groups). Animals were infused with a bolus of THP (3.5x10^-7, 3.5x10^-6, 3.5x10^-5 g/kg), L-NAME (N^∞-nitro-L-arginine methyl ester; 1x10^-3 g/kg) or vehicle (dimethyl sulfoxide/ NaCl 0.9%, 1:10^3; v/v) from a jugular vein 15 minutes before coronary occlusion. The coronary artery was occluded for 30 minutes or 5 minutes followed by 30 minutes reperfusion and with the animals then divided randomly in the following groups: (1) sham + vehicle; (2) sham + THP (3.5x10^-5g/kg); (3) operated + vehicle; (4) operated + THP (3.5x10^-7 g/kg); (5) operated + THP (3.5x10^-6 g/kg); (6) operated + THP (3.5x10^-5 g/kg); (7) operated + L-NAME (1x10^-3 g/kg) + THP (3.5x10^-5 g/kg). Before and during the ischemia or reperfusion period, heart rate (HR), blood pressure (BP) and ECG changes were recorded. Ventricular ectopic activity was evaluated according to the diagnostic criteria advocated in the Lambeth Convention. The incidence and duration of ventricular tachyarrhythmias, including ventricular tachycardia (VT) and ventricular fibrillation (VF), in surviving animals was determined. The Mann-Whitney rank-sum test was used to analyze the differences in the duration of VT and VF between vehicle and drug treated groups. The BP and HR changes between vehicle and drug treated rats in the arrhythmia study were analyzed by ANOVA (analysis of variance) followed by Bonferroni's test. The difference in the percentage incidence of VT, VF and mortality rate was analyzed with a Chi-square test. Table 2 Effect of THP on ischemia-induced arrhythmias in the in vivo anesthetized rat
# No significant difference can be seen among vehicle and drug groups (3.5x10^-6 or 3.5x10^-5 g/kg, THP).
smiles,measurement,setting,value
"COc1cc2c(cc1OC)-c1c(O)c(OC)cc3c1C(C2)N(C)CC3 (single isomer, unassigned; (+)) [THP, (+)-Thaliporphine]",Area at risk (% of ventricle),[1]; THP 3.5x10^-5 g/kg,46.9±0.5 % of ventricle
same,Necrotic (% of Area at risk),[1]; THP 3.5x10^-5 g/kg,10.7±1.8 % of Area at risk
same,Necrotic (% of ventricle),[1]; THP 3.5x10^-5 g/kg,5.0±0.9 % of ventricle
same,Area at risk (% of ventricle),[1]; THP 3.5x10^-6 g/kg,46.5±0.9 % of ventricle
same,Necrotic (% of Area at risk),[1]; THP 3.5x10^-6 g/kg,29.0±2.5 % of Area at risk
same,Necrotic (% of ventricle),[1]; THP 3.5x10^-6 g/kg,13.4±1.2 % of ventricle
same,Area at risk (% of ventricle),[1]; THP 3.5x10^-7 g/kg,47.0±0.6 % of ventricle
same,Necrotic (% of Area at risk),[1]; THP 3.5x10^-7 g/kg,38.1±5.0 % of Area at risk
same,Necrotic (% of ventricle),[1]; THP 3.5x10^-7 g/kg,17.9+2.3 % of ventricle and 17.9±2.3 % of ventricle
same,atrial effective refractory period (AERP),[2]; 3µM,90 ms
same,ventricular effective refractory period (VERP),[2]; 3µM,160 ms
same,AV node effective refractory period (AVNERP),[2]; 3µM,170 ms
same,wenckbach cycle length (WCL),[2]; 3µM,210 ms
same,AH interval (conduction in AV node),"[2]; 10µM, isolated perfused heart",not inhibited
same,HV interval,"[2]; 10µM, isolated perfused heart",prolonged slightly
same,SA interval,"[2]; 10µM, isolated perfused heart",remains unaffected
same,atrial effective refractory period (AERP),[2]; 10µM,100 ms
same,ventricular effective refractory period (VERP),[2]; 10µM,170 ms
same,AV node effective refractory period (AVNERP),[2]; 10µM,200 ms
same,wenckbach cycle length (WCL),[2]; 10µM,230 ms
same,atrial effective refractory period (AERP),[2]; 30µM,120 ms
same,ventricular effective refractory period (VERP),[2]; 30µM,190 ms
same,AV node effective refractory period (AVNERP),[2]; 30µM,240 ms
same,wenckbach cycle length (WCL),[2]; 30µM,280 ms
same,diastolic blood pressure,[3],does not modify
same,heart rate (HR),[3],does not modify
same,systolic blood pressure,[3],does not modify
